Source: patent US8841382B2, “Hyperbranched polyethers/dendrimers for solubilzation of sparingly soluble active ingredients” (BASF SE, priority 2010, dated 2014)
≈ marks a conversion by molar mass, not a printed value. Like-named read-outs stand apart in the source and are kept apart here.

Experiment: Measurement of the solubilization of active ingredients by amphiphiles
Format: physicochemical
Details: thermodynamic from solid
Excerpt: After a rest time of one hour, excess (i.e. unsolubilized) active ingredient was removed by centrifuging. The resulting clear or opaque solution was subsequently analyzed for its active ingredient content by means of UV spectroscopy. The wavelengths of the UV spectroscopy measurement are compiled in table 1.

[1] = distilled water without polymer, room temperature, stirred 24 h, UV spectroscopy, read-out: Solubility of active ingredient, no polymer (noninventive)

Row | SMILES | solubility at 24 h [1] [µg/mL] | solubility at 24 h (water) [µg/mL]
1 | COC(=O)N(OC)c1ccccc1COc1ccn(-c2ccc(Cl)cc2)n1 [Pyraclostrobin] | 22.5 (≈ 58 µM) | 
2 | N#Cc1nn(-c2c(Cl)cc(C(F)(F)F)cc2Cl)c(N)c1[S+]([O-])C(F)(F)F (stereo not shown) [Fipronil] |  | 3 (≈ 6.86 µM)
3 | CN1C(C(=O)Nc2ccccn2)=C(O)c2ccccc2S1(=O)=O [Piroxicam] | 21 (≈ 63.4 µM) | 
4 | NC(=O)N1c2ccccc2C=Cc2ccccc21 [Carbamazepine] | 140 (≈ 593 µM) | 
